According to a melting point compilation (Tetko et al.; mined from patent text by program, amines drawn as free bases though some values may be those of a salt):
Non-standard residues stand in square brackets, D forms with d. Residues, ends and D or L forms follow the SMILES beside them. *: point of attachment. Npys = O=[N+]([O-])c1cccnc1S*; Leu(ol) = CC(C)C[C@H](N)CO; Mpa = O=C(O)CCS

Point of comparison: `C=CCOc1cc(C)c2c(C)cc(=O)oc2c1`, melting point 178 °C. Against it:
- CCCCCCCCCCC(=O)NCCCCCCCCCCCC(=O)O — lower, 102 to 104 °C
- Oc1cc(Cl)ccc1Oc1cccc(Br)c1 — lower, 63 to 65 °C
- CCOC(=O)CNCc1c(N)ccc(Cl)c1Cl — lower, 56 to 60 °C
- c1ccc2c(c1)CCN(Cc1nc3ccccc3[nH]1)C2 — higher, 184 to 186 °C
- Cc1cccc2c1N(C(=O)OC(C)(C)C)CC(=O)N2 — lower, 175 to 177 °C
- CN1C(C)(C)CC(CNc2nc(NO)nc(NCC3CC(C)(C)N(C)C(C)(C)C3)n2)CC1(C)C — lower, 157 to 160 °C
- Cc1c(C)c2c(c(C)c1OCc1ccccc1)CC[C@@](C)(CC(=O)CC(=O)OCc1ccccc1)O2 — lower, 72.5 to 74 °C
- Cc1ccc(O)c(C(=O)OCC=Cc2ccccc2)c1 — not separable, 178 to 179 °C
- COc1cc(-c2nc(N)sc2CSC2CCCCC2)c(OC)cc1C — lower, 143 to 144 °C
- OCc1c(-c2ccccc2)c(-c2ccccc2)nn1Cc1ccccc1 — lower, 138 °C
- Cc1cc(C(=O)CC(O)(c2cc(Cl)cc(Cl)c2)C(F)(F)F)ccc1Br (stereo not given) — lower, 141 to 142 °C
- COc1ccc(CCCC(CCc2ccc(OC)cc2)C(=O)O)cc1 (stereo not given) — lower, 91 to 94 °C
- Cc1ccc(NCC2CCNCC2)c(C(=O)Nc2ccc(F)cn2)c1 — lower, 147 to 149 °C
- O=S(=O)(N[C@H]1CC[C@H](CCN2CCN(c3nccc4c3OCC4)CC2)CC1)c1ccccc1 — lower, 122 °C
- C[C@@H](n1cnc2cc(-c3ccc(Cl)cc3)sc2c1=O)[C@](O)(Cn1cncn1)c1ccc(F)cc1F — lower, 158 to 160 °C
- CC[C@H]1CNC[C@H]1NC(=O)OC(C)(C)C — lower, 63.5 to 65.5 °C
- CC(C)(CCCCCCCCCCC(C)(C)C(O)C(=O)O)C(O)C(=O)O (stereo not given) — lower, 87 to 100 °C
- O=C1CCCC2=C1OC(CC(=O)c1ccccc1)(c1ccccc1)C=C2c1ccccc1 (stereo not given) — not separable, 178 to 179 °C
- ON=C1CCCc2occ(-c3cccc(Cl)c3)c21 — lower, 157 to 158 °C
- CS(=O)(=O)N1CCC(C=O)CC1 — lower, 97 °C
- COc1cc2ccc(-c3ccccc3[N+](=O)[O-])cc2cc1OC — higher, 244 to 246 °C
- CCc1ccc(O)c(C(=NO)c2ccc(Cl)cc2)c1 — lower, 117 °C
- CN(C)c1nc(O)ns1 — lower, 142 °C
- CCN1C(=O)N(c2cc(OC)cc(OC)c2Cl)Cc2cnc(SC)nc21 — higher, 189 to 191 °C
- COCc1nc2c(OCc3ccccc3)cccc2n1C — lower, 120 to 122 °C
- CC(=O)OC1CSC(Oc2cccnc2-c2cncnc2)C(OC(C)=O)C1OC(C)=O (stereo not given) — higher, 205 °C
- Cn1c(C(F)(F)F)cc(Cl)c(-c2ccc(Cl)c(NS(C)(=O)=O)c2)c1=O — lower, 161 to 163 °C
- O=C(Cc1cccs1)N1C(=O)OC[C@@H]1Cc1ccccc1 — lower, 56 to 59 °C
- Cc1ccc(-c2ccccc2C(=O)NN)cc1 — lower, 98 to 99 °C
- CC(=O)c1ccc(C2=CC3CCCC3C2=O)cc1 (stereo not given) — lower, 76 to 77 °C
- O=C(CCC#Cc1cccc(CF)n1)Nc1ccc(F)cc1 — lower, 110 °C
- COC1CCN2C(=O)c3cccc(N)c3C2C1 (stereo not given) — lower, 60 to 62 °C
- COc1cc(CCc2ccc(N)nn2)cc(OC)c1OC — lower, 130 to 132 °C
- Cc1ccc2nc3[nH]c(=O)[nH]c3cc2c1Cl — higher, > 360 °C
- Nc1ccc2nc(-c3cccnc3)nn2c1 — higher, 230 °C
- Cc1cc(Cc2cc(C(C)(C)C)cc(-n3nc4ccccc4n3)c2O)c(O)c(C(C)(C)C)c1 — lower, 175 °C
- COc1cccc([C@H]2O[C@H](CC(=O)N[C@@H](CCSC)C(=O)O)C(=O)N(CC(C)(C)CO)c3ccc(Cl)cc32)c1OC — lower, 129 to 130 °C
- CC(=O)Nc1cccc(-c2cnc3c(c2)nc(-c2cccnc2N)n3-c2ccc(CNC(=O)c3ccccc3)cc2)c1 — lower, 76 to 81 °C
- NS(=O)(=O)c1ccc(-n2cnc3c(-c4ccc(C(F)(F)F)cc4F)ncnc32)cc1 — higher, 244 to 245 °C
- Nc1cc(C(=O)c2ccccc2)ccc1N1CCCCC1 — lower, 99 to 100 °C
- CCOCCc1c(-c2ccc(OC)cc2)nc(N)n2ncnc12 — lower, 176 to 177 °C
- CNC(=O)C(=O)c1cc(Cl)cc(C)c1NC(=O)c1cc(Br)nn1-c1ncccc1Cl — higher, 246 to 247 °C
- CON(C)C(=O)c1cc2c3c(c1)c(-c1cccc(Cl)c1)cc(=O)n3CC2 — lower, 162 °C
- Fc1cc(OC23CC4CC(CC(C4)C2)C3)ccc1N1CCCC1 — lower, 99 to 106 °C
- O=C1CCC(c2ccccc2)(c2ccccc2)C2CN(C(Cc3ccccc3)=NCCCc3ccccc3)CC12 (stereo not given) — lower, 144 °C
- Cc1cc(C)c(-c2nc(Oc3ccccc3)nc(Oc3ccccc3)n2)c(C)c1 — lower, 135 to 143 °C
- CC(=O)NC[C@H]1CN(c2ccc(N3CCC(C)(O)CC3)c(F)c2)C(=O)O1 — higher, 180 to 182 °C
- CCOC(=O)N(C)c1cccc(-c2ccc3nnc(C)n3n2)c1 — lower, 146 to 149 °C
- CCN(CC)C1=NC(NC(=O)CCCCc2ccccc2)C(=O)N(C)c2ccccc21 (stereo not given) — lower, 134 to 135 °C
- COC(=O)c1cc(OCc2ccccc2)cc(C(=O)OC)c1 — lower, 94 to 95 °C
- COC(=O)[C@H](Cc1ccc(NC(=O)c2c(Cl)cccc2Cl)cc1)NC(=O)c1ccc(-n2nnnc2NCc2cccc(O)c2)cc1Cl — lower, 155 to 158 °C
- CNC(=O)[C@@H](NC(=O)[C@H](CC(=O)NOCc1ccccc1)CC(C)C)C(C)(C)C — lower, 128 to 129 °C
- COc1ccc2[nH]c(SC/C=C(\C)CCC=C(C)C)nc2c1 — lower, 113 to 116 °C
- Cc1cc(/C=[N+](\[O-])C(C)C)cc(C)c1O — higher, 201 to 203 °C
- OCC1OC(n2cnc3c(NCCc4csc5ccccc45)ncnc32)C(O)C1O (stereo not given) — lower, 173 to 174 °C
- COCOc1cc(OC)c(OCOC)c(CCCCCc2c(OC)c(OCOC)c(C)c(OC)c2OCOC)c1OC — lower, 76 to 77 °C
- Nc1scc2c1C(=O)c1ccc(Cl)cc1-2 — higher, 201 to 202 °C
- Nc1cccc(C(=O)Nc2cccc3cc(Br)cnc23)c1 — higher, 209 to 211 °C
- CC(C)C[C@@H](CO)NC(=O)[C@H](Cc1c[nH]cn1)NC(=O)[C@H](Cc1ccccc1)NC(=O)CCSSc1ncccc1[N+](=O)[O-] ([Mpa](Npys)FH[Leu(ol)]) — lower, 109 to 112 °C
- Cc1c(C(=O)O)ccn2nc(-c3ccccc3)nc12 — higher, > 250 °C
- COc1cc(C=O)ccc1OCC1CO1 (stereo not given) — lower, 56 to 58 °C
- CC(C)(CO)C[C@H]1COC(C)(C)N1C(=O)OC(C)(C)C — lower, 45 to 46 °C
- OCC1OC(c2n[nH]c3cncnc23)C(O)C1O (stereo not given) — higher, 227 to 228 °C
- Cc1cccc2[nH]c3cc(O)ccc3c12 — higher, 191 °C
- COc1cccc2c1Oc1ccc(C(=O)OC(C)C)cc1NC2 — lower, 110 °C
- O=C(O)CCCc1cc2nc(Cl)ccc2n1S(=O)(=O)c1cccc(-c2cncs2)c1 — lower, 157 to 160 °C
- Cc1nc(N)nc(N[C@@H]2CCc3ccccc32)n1 — lower, 94 to 96 °C
- CC(=O)NC(=O)CSC(=O)Cc1ccccc1 — lower, 123 to 124 °C
- CCCNc1c2ccccc2nc2c1c(C)nn2-c1ccccn1 — lower, 121 to 122 °C
- Nc1nc2ccccc2c2c1ncn2CCOCc1cc2ccccc2o1 — higher, 201 to 203 °C
- CCCCCCCCCCSCCCCCCCCCCNC(=O)OCCN1CCOCC1 — lower, 91 °C
- CCCCCCCCCCCCCCCCCC(=O)OC(CCc1cc(C(C)(C)C)c(O)c(C(C)(C)C)c1)CCc1cc(C(C)(C)C)c(O)c(C(C)(C)C)c1 — lower, 52 to 54 °C
- Cc1csc2c1S(=O)(=O)N(C)C(C(=O)Nc1cccccc1=O)=C2O — higher, 229 to 233 °C
- CCOC(=O)C(C)OCc1cc2nc(Cl)ccc2n1S(=O)(=O)c1ccc2nc(NC(C)=O)sc2c1 (stereo not given) — lower, 100 to 102 °C
- CCOC(=O)C(Cc1ccc(OCCN2CCC(C)(C)c3cc(C(=O)c4ccccc4)ccc32)cc1)Nc1ccccc1C(=O)c1ccccc1 (stereo not given) — lower, 75 to 77 °C
- Cc1c2cccc(-c3cccc(C(=O)NCCC#N)c3)c2nn1Cc1cccc(C(F)(F)F)c1 — higher, 196 to 197 °C
- CC(C)(OCc1cc2cc(C(F)(F)F)ccc2n1S(=O)(=O)c1ccc2c(c1)OCO2)C(=O)O — lower, 130 to 132 °C
- CC1(C)COc2cc3c(cc21)C1(CO3)C(=O)N(C(c2ccccc2)c2ccccc2)c2ccccc21 (stereo not given) — higher, 190 to 192 °C
- COC(=O)c1cc(=O)n2nc(COC(C)=O)nc2[nH]1 — higher, 260 °C
- O=C1C2=C(C=CCN2)CCc2ccc(F)cc21 — lower, 78 to 81 °C
- CSc1nc(Cl)c(C#N)s1 — lower, 83 to 87 °C
- COC(=O)COc1cccc2c(CCSC(c3ccc(Cl)cc3)c3ccc(Cl)cc3)coc12 — lower, 68 to 69 °C
- CN1CN(C(=O)c2c(F)cccc2F)C(=O)N(c2ccc(SC(F)(F)F)cc2F)C1 — lower, 92 to 94 °C
- COc1cc2c(cc1OC)C(Oc1ccccc1)CN(CCCOc1ccccc1)CC2 (stereo not given) — lower, 95 to 100 °C
- CC1CC(=O)c2cc([N+](=O)[O-])c(F)cc2O1 (stereo not given) — lower, 139 to 141 °C
- O=C(c1ccccc1Cl)c1c(O)nn(-c2c(Cl)cc(Cl)cc2Cl)c1N1C(=O)c2ccccc2C1=O — higher, 245 to 246 °C
- CCCCOc1c(CNC(=O)OC(C)(C)C)n(CC(C)C)c(=O)c2ccc(-c3ccccc3)cc12 — lower, 155 to 159 °C
- C[C@H](CN(O)C(N)=O)NC(=O)c1cccc(Oc2ccccc2)c1 — lower, 154 °C
- Cc1nc(N)nc(N)c1-c1ccc(F)cc1F — higher, 291 to 296 °C
- CC(C(=O)O)c1ccc(C=C2CCCCC2O)cc1 (stereo not given) — lower, 135 to 136 °C
- C=CCOc1cc(C(=O)OCC)nc2ccccc12 — lower, 71 to 72 °C
- CC(C)(C)c1ccc(NC(=O)c2ccc(C3NOC(=O)N3)cc2)cc1 (stereo not given) — higher, > 300 °C
- C[C@@H](NC(=O)c1ccc(-c2ccc(C#N)cc2)s1)[C@](O)(Cn1cncn1)c1ccc(F)cc1F — higher, 210 to 211 °C
- Cc1oc(-c2ccccc2)nc1CCOc1ccc(C=O)c2sccc12 — lower, 154 °C
- COC(=O)C1=C(C)Nc2nccn2C1c1cccc(N)c1 (stereo not given) — higher, 224 to 225 °C
- COC(=O)c1c(Br)cc(Br)cc1NC(=O)NCc1ccccc1 — higher, > 280 °C
- FC(F)(F)c1cc(NCc2ccsc2)cc(C(F)(F)F)c1Br — lower, 78 to 79 °C
- Nc1nc2c(s1)CCCc1ccc(F)cc1-2 — higher, 270 °C
- CCOc1cccc(C)c1S(=O)(=O)NC(=O)c1noc(C)n1 — lower, 168 °C
